Data set [1] concerns the target wild EGFR (Homo sapiens, UniProt P00533). Conditions: J. Med. Chem. 2014; cited from earlier work.
Data set [2] can be described thus: Pharmacokinetics of Dositinib and AZD9291 in rats. Conditions: for T1/2: parent drug; for AUC0-last / Cmax: parent drug in plasma; for Cmax: intragastric 12 mg/kg per FIGS. 2-5.
Source text: Preparation of Test Solution
2) Preparation of Orally Administered Preparations • a) Weigh an appropriate amount of compound powders into a container; • b) Add an appropriate volume of 0.5% HPMC (hydroxypropyl methylcellulose, 4000 CP) aqueous solution to the container, and continuously stir or whirl until a uniform solution was obtained; • c) Add the remaining volume of 0.5% HPMC (hydroxypropyl methylcellulose, 4000 CP) aqueous solution to the container to a final volume, and continuously stir or whirl until the solution was uniform.
The preparation for intragastric administration was prepared the day before administration and analyzed. When the preparation was not in use, it was stored in a refrigerator at 2° C. to 8° C. and used within 8 days.
Animal: Rats (SD) from Beijing Vital River Laboratory Animal Technology Co., Ltd. 36 rats (18 males and 18 females), 6-10 weeks old, 200-300 g (males); 170-280 g (female). […] The animals in the sixth group were administered with AZD9291 (mesylate) solution by gavage, with a dose volume of 10 mL/kg. The blood samples were taken at the following time points after administration to measure the blood drug concentrations: 0.083, 0.25, 0.5, 1, 2, 4, 6, 8, 12 and 24 hours.
Administration: Whole blood samples were collected through jugular vein puncture (or other appropriate blood collection sites) at the specified time (about 0.15 mL in the fifth group and 0.23 mL in other groups), with wet ice operation throughout the whole process, and the actual blood collection time was recorded in the experimental records. The acceptable error of collection time point was ±1 minute within 1 hour of administration, and ±5% of theoretical time for other time points. The blood samples were immediately transferred to labeled commercial tubes containing K2-EDTA and then centrifuged (3,000 g, 4° C., 15 min) for plasma collection.
Retention time, chromatogram collection and chromatogram integration of compounds and internal standards were processed by Software Analyst (Applied Biosystems), and data statistics were processed by software Watson LIMS (Thermo Fisher Scientific) or Analyst (Applied Biosystems). The unit of the analyte concentration in the sample was nM, three significant figures were reserved, and all values expressed in percentage (such as % deviation and % coefficient of variation, etc.) were reserved to one decimal place.
Data analysis and reporting: WinNonlin™ Version 6.3 (Pharsight, Mountain View, CA) or above pharmacokinetic software for non-atrioventricular models was used to process the blood drug concentration, and the linear logarithm trapezoid method was used to calculate the pharmacokinetic parameters.
The subject of data set [3] is Human non-small cell lung cancer HCC827 cell subcutaneous xenograft. Conditions: HCC-827 nude mouse model, PO QD.
Procedure: Example 5 In Vivo Pharmacodynamics of Crystalline Form B of Dositinib and AZD9291 on Human Non-Small Cell Lung Cancer HCC827 Cell Subcutaneous Xenograft BALB/C Nude Mouse Model
Human non-small cell lung cancer HCC827 (ATCC-CRL-2868) was monolayer cultured in vitro. The culture conditions were: RPMI-1640 medium with 10% fetal bovine serum, 100 U/mL penicillin and 100 g/mL streptomycin, in a 5% CO2 incubator at 37° C. Trypsin EDTA was used for routine digestion twice a week. When the cell saturation was 80%-90% and the number reached the requirements, the cells were collected, counted and transplanted.
Animals: BALB/c nude mouse, female, 6-8 weeks old, weight 18-22 g. […]
Experimental index: to investigate whether the tumor growth is inhibited, delayed or cured. The tumor diameter was measured with a vernier caliper twice a week. […]
The antitumor effect of the compound was evaluated by tumor growth inhibition value (TGI) (%) or relative tumor proliferation rate T/C (%). […]
Relative tumor proliferation rate T/C (%): the calculation is as follows: T/C %=TRTV/CRTV×100% (TRTV: treatment group RTV; CRTV: negative control group RTV). The relative tumor volume (RTV) is calculated according to the results of tumor measurement. […]
At the end of the experiment, the tumor weight is measured and the percentage of Tweight/Cweight is calculated. […]

Sequence of wild EGFR (P00533 25-1210): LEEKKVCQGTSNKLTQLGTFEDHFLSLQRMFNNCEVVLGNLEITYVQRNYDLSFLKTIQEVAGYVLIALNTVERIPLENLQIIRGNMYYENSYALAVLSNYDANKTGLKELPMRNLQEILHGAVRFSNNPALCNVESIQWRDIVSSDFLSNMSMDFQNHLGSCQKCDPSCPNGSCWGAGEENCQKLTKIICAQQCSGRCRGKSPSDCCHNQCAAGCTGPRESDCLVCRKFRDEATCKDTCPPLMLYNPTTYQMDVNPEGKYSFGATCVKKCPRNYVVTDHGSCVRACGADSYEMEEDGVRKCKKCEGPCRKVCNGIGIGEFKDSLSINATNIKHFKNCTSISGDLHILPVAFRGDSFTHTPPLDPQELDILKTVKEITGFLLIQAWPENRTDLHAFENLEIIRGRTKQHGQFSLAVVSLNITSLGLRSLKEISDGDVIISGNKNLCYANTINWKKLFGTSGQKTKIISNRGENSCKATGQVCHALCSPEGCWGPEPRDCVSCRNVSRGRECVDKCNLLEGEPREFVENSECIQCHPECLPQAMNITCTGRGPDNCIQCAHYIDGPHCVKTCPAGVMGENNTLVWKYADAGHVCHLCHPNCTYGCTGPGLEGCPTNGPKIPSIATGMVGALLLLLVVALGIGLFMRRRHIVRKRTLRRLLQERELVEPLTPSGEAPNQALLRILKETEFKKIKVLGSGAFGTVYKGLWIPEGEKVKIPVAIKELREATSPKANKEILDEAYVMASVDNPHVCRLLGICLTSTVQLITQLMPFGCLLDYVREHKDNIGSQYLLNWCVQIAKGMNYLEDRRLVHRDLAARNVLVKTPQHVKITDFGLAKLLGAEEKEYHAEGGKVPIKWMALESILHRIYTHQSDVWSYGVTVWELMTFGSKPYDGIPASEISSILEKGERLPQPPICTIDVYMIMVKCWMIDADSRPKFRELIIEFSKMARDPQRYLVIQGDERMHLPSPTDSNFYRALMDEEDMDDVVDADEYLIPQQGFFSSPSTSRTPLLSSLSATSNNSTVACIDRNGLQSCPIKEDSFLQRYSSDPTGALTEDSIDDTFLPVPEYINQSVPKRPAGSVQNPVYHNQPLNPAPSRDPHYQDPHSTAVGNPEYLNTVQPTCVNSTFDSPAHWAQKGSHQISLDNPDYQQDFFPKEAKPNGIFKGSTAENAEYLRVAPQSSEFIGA

Turning to `C=CC(=O)Nc1cc(Nc2nccc(-c3c[nH]c4ccccc34)n2)c(OC)cc1N(C)CCN(C)C` [AZ5104], the “inhibitory activity on wild EGFR, times stronger than that of Osimertinib” value in data set [1] is 14.5 times.
For orientation: Cmax means the maximum level reached in the sampled fluid or tissue. In the case of `C=CC(=O)Nc1cc(Nc2nccc(-c3cn(C)c4ccccc34)n2)c(OC)cc1N(C)CCN(C)C` [AZD9291 (crystalline form A + B), Osimertinib, reference compound], in data set [2] (female rats), the T1/2 is listed as 5.59 h, the AUC0-last was found to be 2592 ng·h/mL and the Cmax was 207 ng/mL. Moreover, in data set [2] (male rats), the T1/2 amounted to 3.40 h, the AUC0-last was determined as 907 ng·h/mL and the maximum concentration (Cmax) amounted to 106 ng/mL.
Regarding `CS(=O)(=O)O.[2H]C([2H])=CC(=O)Nc1cc(Nc2nccc(-c3cn(C([2H])([2H])[2H])c4ccccc34)n2)c(OC)cc1N(C)CCN(C)C` [Dositinib (crystalline form B), N-(2-(((2-(Dimethylamino)ethyl)) (methyl)amino)-4-methoxy-5-((4-(d3-1-methyl-1H-indol-3-yl)pyrimidin-2-yl)amino)phenyl) d2-acrylamide-mesylate], in data set [2] (female rats), the T1/2 is 6.85 h, the AUC0-last stood at 3105 ng·h/mL and the maximum concentration (Cmax) was found to be 208 ng/mL. In data set [2] (male rats), the T1/2 was found to be 3.87 h, the AUC0-last is 1100 ng·h/mL and the Cmax is listed as 115 ng/mL. Besides, the “anticancer activity relative to AZD9291 (Osimertinib, mixture of crystalline forms A and B)” value in data set [3] is listed as “twice”. In addition, the “anticancer activity of 0.5 mg/kg compared with 1 mg/kg of AZD9291” value in data set [3] (0.5 mg/kg) was “equivalent”.
Regarding `CS(=O)(=O)O.[2H]C([2H])=CC(=O)Nc1cc(Nc2nccc(-c3cn(C([2H])([2H])[2H])c4ccccc34)n2)c(OC)cc1N(C)CCN(C)C` [Dositinib (crystalline form A + B), N-(2-(((2-(Dimethylamino)ethyl)) (methyl)amino)-4-methoxy-5-((4-(d3-1-methyl-1H-indol-3-yl)pyrimidin-2-yl)amino)phenyl) d2-acrylamide-mesylate], in data set [2] (female rats), the T1/2 was found to be 6.77 h, the AUC0-last turned out to be 2650 ng·h/mL and the Cmax came to 205 ng/mL. Besides, in data set [2] (male rats), the T1/2 was determined as 3.70 h, the AUC0-last came to 915 ng·h/mL and the highest concentration (Cmax) turned out to be 110 ng/mL.
